Measurements reported in PMC10419174, “WR1065 conjugated to thiol-PEG polymers as novel anticancer prodrugs: broad spectrum efficacy, synergism, and drug resistance reversal” (Frontiers in Oncology, 2023).
“And” between values parts separate entries of the source, which are not always exact repeats. Identical values can stand only once. Marks after values point to notes of the source that are not given here.

Experiments:
Prostate LNCaP cells = experiment: cells
Protocol: (§1) The percentage of growth inhibition was calculated as follows: […]

NCI-H1975 NSCLC cells = experiment: cells
Protocol: as §1

A549 NSCLC cells = experiment: cells
Protocol: as §1

Prostate PC3 cells = experiment: cells
Protocol: as §1

Prostate DU145 cells = experiment: cells
Protocol: as §1

[1] = tested on: Promyelocytic HL-60 leukemia cells; assay type: cell-based
Protocol: as §1

[2] = 48-h treatment, amifostine ND = not definable up to 500 µM
[3] = drug alone, 48 h, 4SP65/cisplatin study
[4] = drug alone, 48 h, 4SP65/gefitinib study
[5] = drug alone, 48 h, 4SP65/gefitinib study, ND = not definable, highest concentration in parentheses

4-star-PEG-S-S-WR1065 [4SP65]
TGI (Prostate LNCaP cells; [2]): 4.7 ± 1.5 µM | Dose reduction value 1LP65 ÷ 4SP65 (Prostate LNCaP cells; at GI50): 11 fold | Dose reduction value AMF ÷ 4SP65 (Prostate LNCaP cells; at GI50): 60 fold | Dose reduction value 1LP65 ÷ 4SP65 (Prostate LNCaP cells; at IC50): 14 fold | Dose reduction value AMF ÷ 4SP65 (Prostate LNCaP cells; at IC50): 122 fold | Dose reduction value 1LP65 ÷ 4SP65 (Prostate LNCaP cells; at LC50): 12 fold | Dose reduction value 1LP65 ÷ 4SP65 (Prostate LNCaP cells; at LC99): 11 fold | Dose reduction value 1LP65 ÷ 4SP65 (Prostate LNCaP cells; at TGI): 11 fold | CC50 (NCI-H1975 NSCLC cells): 7.6 ± 1.3 µM | GI50 (NCI-H1975 NSCLC cells; [2]): 3.1 ± 0.6 µM | IC50 (NCI-H1975 NSCLC cells; [2]): 4.2 ± 1 µM | LC99 (NCI-H1975 NSCLC cells; [2]): 9.3 ± 1.1 µM | TGI (NCI-H1975 NSCLC cells; [2]): 5.2 ± 0.9 µM | Dose reduction value 1LP65 ÷ 4SP65 (NCI-H1975 NSCLC cells; at GI50): 13 fold | Dose reduction value AMF ÷ 4SP65 (NCI-H1975 NSCLC cells; at GI50): 42 fold | Dose reduction value 1LP65 ÷ 4SP65 (NCI-H1975 NSCLC cells; at IC50): 13 fold | Dose reduction value 1LP65 ÷ 4SP65 (NCI-H1975 NSCLC cells; at LC50): 8.3 fold | Dose reduction value 1LP65 ÷ 4SP65 (NCI-H1975 NSCLC cells; at LC99): 9.3 fold | Dose reduction value 1LP65 ÷ 4SP65 (NCI-H1975 NSCLC cells; at TGI): 10 fold | gains of cytostatic and cytolytic activities, range (A549 NSCLC cells; 4SP65-cisplatin combined): 1.9- to 2.4 fold | GI50 (A549 NSCLC cells; [2]): 5.3 ± 1.1 µM | IC50 (A549 NSCLC cells; [2]): 6.8 ± 1.3 µM | LC99 (A549 NSCLC cells; [2]): 14.9 ± 3.8 µM | TGI (A549 NSCLC cells; [2]): 8.5 ± 1.5 µM and 8.5 µM | LC99, drug in combination (CMB) (A549 NSCLC cells; amount of each drug in combination, ratio 50% 4SP65:50% DDP, 48 h): 8 µM | Dose reduction value 1LP65 ÷ 4SP65 (A549 NSCLC cells; at GI50): 9.9 fold | Dose reduction value AMF ÷ 4SP65 (A549 NSCLC cells; at GI50): 43 fold | Dose reduction value 1LP65 ÷ 4SP65 (A549 NSCLC cells; at IC50): 9.8 fold | Dose reduction value AMF ÷ 4SP65 (A549 NSCLC cells; at IC50): 37 fold | Dose reduction value 1LP65 ÷ 4SP65 (A549 NSCLC cells; at LC50): 13 fold | Dose reduction value 1LP65 ÷ 4SP65 (A549 NSCLC cells; at LC99): 13 fold | Dose reduction value 1LP65 ÷ 4SP65 (A549 NSCLC cells; at TGI): 15 fold | Fold increase in efficacy (A549 NSCLC cells; drug alone ÷ drug in 4SP65-DDP combination, at GI50): 2.4* fold | Fold increase in efficacy (A549 NSCLC cells; drug alone ÷ drug in 4SP65-DDP combination, at IC50): 2.2* fold | Fold increase in efficacy (A549 NSCLC cells; drug alone ÷ drug in 4SP65-DDP combination, at LC50): 1.9* fold | Fold increase in efficacy (A549 NSCLC cells; drug alone ÷ drug in 4SP65-DDP combination, at LC99): 1.9* fold | Fold increase in efficacy (A549 NSCLC cells; drug alone ÷ drug in 4SP65-DDP combination, at TGI): 1.9* fold | Fold increase in efficacy (A549 NSCLC cells; drug alone ÷ drug in 4SP65-GEF combination, at GI50): 1.5** fold | Fold increase in efficacy (A549 NSCLC cells; drug alone ÷ drug in 4SP65-GEF combination, at IC50): 1.4** fold | Fold increase in efficacy (A549 NSCLC cells; drug alone ÷ drug in 4SP65-GEF combination, at LC50, GoE = gain of effect): 1.1 (NS) fold | Fold increase in efficacy (A549 NSCLC cells; drug alone ÷ drug in 4SP65-GEF combination, at LC99, GoE = gain of effect): 1.0 (NS) fold | Fold increase in efficacy (A549 NSCLC cells; drug alone ÷ drug in 4SP65-GEF combination, at TGI, GoE = gain of effect): 1.5** fold | GI50 (A549 NSCLC cells; [3]): 5.4 ± 2.5 µM | IC50 (A549 NSCLC cells; [3]): 6.8 ± 1.3 µM | LC99 (A549 NSCLC cells; [3]): 14.9 ± 3.8 µM | TGI (A549 NSCLC cells; [3]): 8.3 ± 1.5 µM | GI50 (A549 NSCLC cells; [4]): 6 ± 0.6 µM | IC50 (A549 NSCLC cells; [4]): 7.4 ± 0.7 µM | LC99 (A549 NSCLC cells; [5]): 12.3 ± 3.8 µM | TGI (A549 NSCLC cells; [5]): 11.3 ± 1.5 µM | CC50 (Prostate PC3 cells): 4.5 ± 0.6 µM | GI50 (Prostate PC3 cells; [2]): 0.7 ± 0.2 µM | IC50 (Prostate PC3 cells; [2]): 2 ± 0.3 µM | LC99 (Prostate PC3 cells; [2]): 5.8 ± 0.8 µM | TGI (Prostate PC3 cells; [2]): 2.1 ± 0.5 µM and 2.1 µM | Dose reduction value 1LP65 ÷ 4SP65 (Prostate PC3 cells; at GI50): 25 fold | Dose reduction value AMF ÷ 4SP65 (Prostate PC3 cells; at GI50): 58 fold | Dose reduction value 1LP65 ÷ 4SP65 (Prostate PC3 cells; at IC50): 19 fold | Dose reduction value AMF ÷ 4SP65 (Prostate PC3 cells; at IC50): 52 fold | Dose reduction value 1LP65 ÷ 4SP65 (Prostate PC3 cells; at LC50): 13 fold | Dose reduction value 1LP65 ÷ 4SP65 (Prostate PC3 cells; at LC99): 15 fold | Dose reduction value 1LP65 ÷ 4SP65 (Prostate PC3 cells; at TGI): 19 fold | Dose reduction value AMF ÷ 4SP65 (Prostate PC3 cells; at TGI): 143 fold | CC50 (Prostate DU145 cells): 11.1 ± 0.1 µM | GI50 (Prostate DU145 cells; [2]): 7.5 ± 1.2 µM | IC50 (Prostate DU145 cells; [2]): 8.5 ± 1 µM | LC99 (Prostate DU145 cells; [2]): 12.0 ± 0.1 µM | TGI (Prostate DU145 cells; [2]): 9.5 ± 0.7 µM and 9.5 µM | Dose reduction value 1LP65 ÷ 4SP65 (Prostate DU145 cells; at GI50): 3.5 fold | Dose reduction value AMF ÷ 4SP65 (Prostate DU145 cells; at GI50): 17 fold | Dose reduction value 1LP65 ÷ 4SP65 (Prostate DU145 cells; at IC50): 3.5 fold | Dose reduction value AMF ÷ 4SP65 (Prostate DU145 cells; at IC50): 38 fold | Dose reduction value 1LP65 ÷ 4SP65 (Prostate DU145 cells; at LC50): 6.4 fold | Dose reduction value 1LP65 ÷ 4SP65 (Prostate DU145 cells; at LC99): 7.0 fold | Dose reduction value 1LP65 ÷ 4SP65 (Prostate DU145 cells; at TGI): 5.6 fold | CC50 [1]: 7.5 ± 2.1 µM | GI50 ([1]; 48-h treatment): 1.9 ± 0.6 µM | IC50 ([1]; 48-h treatment): 4.4 ± 0.9 µM | LC99 ([1]; 48-h treatment): 10.2 ± 3.4 µM | TGI ([1]; 48-h treatment): 4.7 ± 0.7 µM and 4.7 µM
